Source: publication PMC9340768 (Journal of Medicinal Chemistry, 2022)
Each block holds one compound with its values, some of them ahead of it. Starred links: 1 amine or outer side, 2 acyl side, 3 side chain; linkers in the order of their positions; H or OH if unused. Positions of bridges follow the written chain, without caps; N, C: chain ends. Non-standard residues stand in square brackets, D forms with d. Residues, ends and D or L forms follow the SMILES beside them. Chains are numbered I, II in the order given. TATA = O=C(CC[*:1])N1CN(C(=O)CC[*:2])CN(C(=O)CC[*:3])C1; X1 = O=C(CCc1cn(CCOCCOCCOCCOCCOCCC(=O)[*:2])nn1)[*:1]; 1Nal = N[C@@H](Cc1cccc2ccccc12)C(=O)O; Hyp = O=C(O)[C@@H]1C[C@@H](O)CN1; hArg = N=C(N)NCCCC[C@H](N)C(=O)O; tBuAla = CC(C)(C)C[C@H](N)C(=O)O; Nle = CCCC[C@H](N)C(=O)O

Assays:
[1] = target: CD137 (Homo sapiens, UniProt Q07011+Q96NY8); test: HT1376/CD137 reporter coculture assay; type: cell-based
CD137, sequence (Q07011 24-255): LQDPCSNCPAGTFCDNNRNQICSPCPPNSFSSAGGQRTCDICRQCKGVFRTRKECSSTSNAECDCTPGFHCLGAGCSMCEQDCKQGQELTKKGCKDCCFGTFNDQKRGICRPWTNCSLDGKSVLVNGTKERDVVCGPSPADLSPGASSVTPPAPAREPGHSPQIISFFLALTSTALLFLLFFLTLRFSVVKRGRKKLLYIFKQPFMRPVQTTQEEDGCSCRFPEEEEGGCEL
CD137, sequence (Q96NY8 32-510): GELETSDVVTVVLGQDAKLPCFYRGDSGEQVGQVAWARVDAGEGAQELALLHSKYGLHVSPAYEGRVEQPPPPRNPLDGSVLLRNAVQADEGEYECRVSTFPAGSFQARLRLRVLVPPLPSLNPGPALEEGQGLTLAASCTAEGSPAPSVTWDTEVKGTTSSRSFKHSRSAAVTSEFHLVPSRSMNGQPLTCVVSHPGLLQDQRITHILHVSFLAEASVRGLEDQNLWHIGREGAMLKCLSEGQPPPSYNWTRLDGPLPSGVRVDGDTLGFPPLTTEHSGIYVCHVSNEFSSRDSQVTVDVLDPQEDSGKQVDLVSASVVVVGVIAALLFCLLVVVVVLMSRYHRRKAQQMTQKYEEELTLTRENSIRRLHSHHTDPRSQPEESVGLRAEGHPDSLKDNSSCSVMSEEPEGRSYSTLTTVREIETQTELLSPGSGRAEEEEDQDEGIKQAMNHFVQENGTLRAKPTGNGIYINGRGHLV

[2] = Pharmacokinetics in Sprague-Dawley rats; details: rat, in vivo, iv, 2 mg/kg

SMILES: CCCC[C@@H]1NC(=O)[C@H](Cc2ccc(O)cc2)NC(=O)[C@@H]2CCCN2C(=O)[C@H](CC(=O)O)NC(=O)[C@H](C)NC(=O)[C@H](Cc2ccccc2)NC(=O)[C@@H]2CSCCC(=O)N3CN(CN(C3)C(=O)CCSC[C@@H](C(=O)N[C@@H](C)C(N)=O)NC1=O)C(=O)CCSC[C@H](NC(C)=O)C(=O)N[C@@H](CC(C)(C)C)C(=O)N1CCC[C@H]1C(=O)N[C@@H](CCC(=O)O)C(=O)N[C@H](CCCCNC(=O)CCc1cn(CCOCCOCCOCCOCCOCCOCCOCCOCCOCCOCCNC(=O)CCOCCN(CCOCCC(=O)NCCOCCOCCOCCOCCOCCOCCOCCOCCOCCOCCn3cc(CCC(=O)NCCCC[C@H]4NC(=O)[C@H](CCC(=O)O)NC(=O)[C@@H]5CCCN5C(=O)[C@H](CC(C)(C)C)NC(=O)[C@@H](NC(C)=O)CSCCC(=O)N5CN6CN(C5)C(=O)CCSC[C@H](NC(=O)[C@H](Cc5ccc(O)cc5)NC(=O)[C@@H]5CCCN5C4=O)C(=O)N[C@@H](Cc4ccccc4)C(=O)N[C@@H](C)C(=O)N[C@@H](CC(=O)O)C(=O)N4CCC[C@H]4C(=O)N[C@@H](Cc4ccc(O)cc4)C(=O)N[C@@H](CCCC)C(=O)N[C@H](C(=O)N[C@@H](C)C(N)=O)CSCCC6=O)nn3)CCOCCC(=O)NCCOCCOCCOCCOCCOCCOCCOCCOCCOCCOCCn3cc(CCC(=O)N[C@H]4CSCCC(=O)N5CN6CN(C5)C(=O)CCSC[C@H](NC(=O)[C@@H](CC(=O)O)NC(=O)[C@H](Cc5cccc7ccccc57)NC(=O)[C@@H]5CCCN5C4=O)C(=O)N[C@@H](CCSC)C(=O)N[C@@H](CCCCNC(=N)N)C(=O)N[C@@H](CC(=O)O)C(=O)N[C@@H](Cc4c[nH]c5ccccc45)C(=O)N[C@@H](CO)C(=O)N[C@@H]([C@@H](C)O)C(=O)N4CCC[C@H]4C(=O)N4C[C@H](O)C[C@H]4C(=O)N[C@@H](Cc4c[nH]c5ccccc45)C(=O)N[C@H](C(N)=O)CSCCC6=O)nn3)nn1)C(=O)N1CCC[C@H]1C(=O)N[C@@H](Cc1ccc(O)cc1)C(=O)N2 [BCY11027]
half-life [2]: 35.4 min

SMILES: CCCC[C@@H]1NC(=O)[C@H](Cc2ccc(O)cc2)NC(=O)[C@@H]2CCCN2C(=O)[C@H](CC(=O)O)NC(=O)[C@H](C)NC(=O)[C@H](Cc2ccccc2)NC(=O)[C@@H]2CSCCC(=O)N3CN(CN(C3)C(=O)CCSC[C@@H](C(=O)N[C@@H](CNC(=O)CCc3cn(CC(=O)N[C@H]4CSCCC(=O)N5CN6CN(C5)C(=O)CCSC[C@H](NC(=O)[C@@H](CC(=O)O)NC(=O)[C@H](Cc5cccc7ccccc57)NC(=O)[C@@H]5CCCN5C4=O)C(=O)N[C@@H](CCSC)C(=O)N[C@@H](CCCCNC(=N)N)C(=O)N[C@@H](CC(=O)O)C(=O)N[C@@H](Cc4c[nH]c5ccccc45)C(=O)N[C@@H](CO)C(=O)N[C@@H]([C@@H](C)O)C(=O)N4CCC[C@H]4C(=O)N4C[C@H](O)C[C@H]4C(=O)N[C@@H](Cc4c[nH]c5ccccc45)C(=O)N[C@H](C(N)=O)CSCCC6=O)nn3)C(N)=O)NC1=O)C(=O)CCSC[C@H](NC(C)=O)C(=O)N[C@@H](CC(C)(C)C)C(=O)N1CCC[C@H]1C(=O)N[C@@H](CCC(=O)O)C(=O)N[C@H](C)C(=O)N1CCC[C@H]1C(=O)N[C@@H](Cc1ccc(O)cc1)C(=O)N2 [BCY11375]
improvement of EC50 ([1]; CD137 affinity improved from BCY9399 to BCY11375): 3.6 fold

SMILES: CCCC[C@@H]1NC(=O)[C@H](Cc2ccc(O)cc2)NC(=O)[C@@H]2CCCN2C(=O)[C@H](CC(=O)O)NC(=O)[C@H](C)NC(=O)[C@H](Cc2ccccc2)NC(=O)[C@@H]2CSCCC(=O)N3CN(CN(C3)C(=O)CCSC[C@H](NC(C)=O)C(=O)N[C@@H](CC(C)(C)C)C(=O)N[C@@H](CCC(=O)O)C(=O)N[C@@H](CCC(=O)O)C(=O)N[C@H](CCCCNC(=O)CCc3cn(CCOCCOCCOCCOCCOCCC(=O)N[C@H]4CSCCC(=O)N5CN6CN(C5)C(=O)CCSC[C@H](NC(=O)[C@@H](CC(=O)O)NC(=O)[C@H](Cc5cccc7ccccc57)NC(=O)[C@@H]5CCCN5C4=O)C(=O)N[C@@H](CCSC)C(=O)N[C@@H](CCCCNC(=N)N)C(=O)N[C@@H](CC(=O)O)C(=O)N[C@@H](Cc4c[nH]c5ccccc45)C(=O)N[C@@H](CO)C(=O)N[C@@H]([C@@H](C)O)C(=O)N4CCC[C@H]4C(=O)N4C[C@H](O)C[C@H]4C(=O)N[C@@H](Cc4c[nH]c5ccccc45)C(=O)N[C@H](C(N)=O)CSCCC6=O)nn3)C(=O)N3CCC[C@H]3C(=O)N[C@@H](Cc3ccc(O)cc3)C(=O)N2)C(=O)CCSC[C@@H](C(N)=O)NC1=O [BCY12377]
clearance ([2]; CL (mL/min/kg), SD rats, 2 mg/kg IV bolus): 7.8 mL/min/kg

SMILES: CCCC[C@@H]1NC(=O)[C@H](Cc2ccc(O)cc2)NC(=O)[C@@H]2CCCN2C(=O)[C@H](CC(=O)O)NC(=O)[C@H](C)NC(=O)[C@H](Cc2ccccc2)NC(=O)[C@@H]2CSCCC(=O)N3CN(CN(C3)C(=O)CCSC[C@@H](C(=O)N[C@@H](C)C(N)=O)NC1=O)C(=O)CCSC[C@H](NC(C)=O)C(=O)N[C@@H](CC(C)(C)C)C(=O)N1CCC[C@H]1C(=O)N[C@@H](CCC(=O)O)C(=O)N[C@H](CCCCNC(=O)CCc1cn(CCOCCOCCOCCN(CCOCCOCCOCCn3cc(CCC(=O)NCCCC[C@H]4NC(=O)[C@H](CCC(=O)O)NC(=O)[C@@H]5CCCN5C(=O)[C@H](CC(C)(C)C)NC(=O)[C@@H](NC(C)=O)CSCCC(=O)N5CN6CN(C5)C(=O)CCSC[C@H](NC(=O)[C@H](Cc5ccc(O)cc5)NC(=O)[C@@H]5CCCN5C4=O)C(=O)N[C@@H](Cc4ccccc4)C(=O)N[C@@H](C)C(=O)N[C@@H](CC(=O)O)C(=O)N4CCC[C@H]4C(=O)N[C@@H](Cc4ccc(O)cc4)C(=O)N[C@@H](CCCC)C(=O)N[C@H](C(=O)N[C@@H](C)C(N)=O)CSCCC6=O)nn3)CCOCCOCCOCC(=O)NCCCNC(=O)Cn3cc(CCC(=O)NCCCNC(=O)COCCOCCOCCN(CCOCCOCCOCCn4cc(CCC(=O)NCCC(=O)N[C@H]5CSCCC(=O)N6CN7CN(C6)C(=O)CCSC[C@H](NC(=O)[C@@H](CC(=O)O)NC(=O)[C@H](Cc6cccc8ccccc68)NC(=O)[C@@H]6CCCN6C5=O)C(=O)N[C@@H](CCSC)C(=O)N[C@@H](CCCCNC(=N)N)C(=O)N[C@@H](CC(=O)O)C(=O)N[C@@H](Cc5c[nH]c6ccccc56)C(=O)N[C@@H](CO)C(=O)N[C@@H]([C@@H](C)O)C(=O)N5CCC[C@H]5C(=O)N5C[C@H](O)C[C@H]5C(=O)N[C@@H](Cc5c[nH]c6ccccc56)C(=O)N[C@H](C(N)=O)CSCCC7=O)nn4)CCOCCOCCOCCn4cc(CCC(=O)NCCC(=O)N[C@H]5CSCCC(=O)N6CN7CN(C6)C(=O)CCSC[C@H](NC(=O)[C@@H](CC(=O)O)NC(=O)[C@H](Cc6cccc8ccccc68)NC(=O)[C@@H]6CCCN6C5=O)C(=O)N[C@@H](CCSC)C(=O)N[C@@H](CCCCNC(=N)N)C(=O)N[C@@H](CC(=O)O)C(=O)N[C@@H](Cc5c[nH]c6ccccc56)C(=O)N[C@@H](CO)C(=O)N[C@@H]([C@@H](C)O)C(=O)N5CCC[C@H]5C(=O)N5C[C@H](O)C[C@H]5C(=O)N[C@@H](Cc5c[nH]c6ccccc56)C(=O)N[C@H](C(N)=O)CSCCC7=O)nn4)nn3)nn1)C(=O)N1CCC[C@H]1C(=O)N[C@@H](Cc1ccc(O)cc1)C(=O)N2 [BCY12970]
fold more potent than the 1:2 format ([1]; 2:2 molecule vs 1:2 format): 2.9 fold

More lines, now with the values ahead:

EC50 relative to similar compounds ([1]; vs dLys4 (BCY10572) or C-terminal Dap (BCY10573) attachment): two- to threefold weaker
SMILES: CCCC[C@@H]1NC(=O)[C@H](Cc2ccc(O)cc2)NC(=O)[C@@H]2CCCN2C(=O)[C@H](CC(=O)O)NC(=O)[C@H](C)NC(=O)[C@H](Cc2ccccc2)NC(=O)[C@@H]2CSCCC(=O)N3CN(CN(C3)C(=O)CCSC[C@@H](C(=O)N[C@@H](C)C(N)=O)NC1=O)C(=O)CCSC[C@H](NC(C)=O)C(=O)N[C@@H](CC(C)(C)C)C(=O)N1CCC[C@H]1C(=O)N[C@@H](CCCCNC(=O)CCc1cn(CCOCCOCCOCCOCCOCCC(=O)N[C@H]3CSCCC(=O)N4CN5CN(C4)C(=O)CCSC[C@H](NC(=O)[C@@H](CC(=O)O)NC(=O)[C@H](Cc4cccc6ccccc46)NC(=O)[C@@H]4CCCN4C3=O)C(=O)N[C@@H](CCSC)C(=O)N[C@@H](CCCCNC(=N)N)C(=O)N[C@@H](CC(=O)O)C(=O)N[C@@H](Cc3c[nH]c4ccccc34)C(=O)N[C@@H](CO)C(=O)N[C@@H]([C@@H](C)O)C(=O)N3CCC[C@H]3C(=O)N3C[C@H](O)C[C@H]3C(=O)N[C@@H](Cc3c[nH]c4ccccc34)C(=O)N[C@H](C(N)=O)CSCCC5=O)nn1)C(=O)N[C@H](C)C(=O)N1CCC[C@H]1C(=O)N[C@@H](Cc1ccc(O)cc1)C(=O)N2 [BCY10571]

improvement of EC50 ([1]; Nectin-4 affinity improved from BCY11858 to BCY12579): 12 fold
SMILES: CCCC[C@@H]1NC(=O)[C@H](Cc2ccc(O)cc2)NC(=O)[C@@H]2CCCN2C(=O)[C@H](CC(=O)O)NC(=O)[C@H](C)NC(=O)[C@H](Cc2ccccc2)NC(=O)[C@@H]2CSCCC(=O)N3CN(CN(C3)C(=O)CCSC[C@@H](C(=O)N[C@@H](C)C(N)=O)NC1=O)C(=O)CCSC[C@H](NC(C)=O)C(=O)N[C@@H](CC(C)(C)C)C(=O)N1CCC[C@H]1C(=O)N[C@@H](CCC(=O)O)C(=O)N[C@H](CCCCNC(=O)CCc1cn(CCOCCOCCOCCOCCOCCC(=O)NCCCC[C@H]3NC(=O)[C@H](Cc4cccc5ccccc45)NC(=O)[C@@H]4CCCN4C(=O)[C@@H](NC(C)=O)CSCCC(=O)N4CN5CN(C4)C(=O)CCSC[C@H](NC3=O)C(=O)N[C@@H](CCSC)C(=O)N[C@@H](CCCCNC(=N)N)C(=O)N[C@@H](Cc3c[nH]cn3)C(=O)N[C@@H](Cc3c[nH]c4ccccc34)C(=O)N[C@@H](CO)C(=O)N[C@@H]([C@@H](C)O)C(=O)N3CCC[C@H]3C(=O)N3C[C@H](O)C[C@H]3C(=O)N[C@@H](Cc3c[nH]c4ccccc34)C(=O)N[C@H](C(N)=O)CSCCC5=O)nn1)C(=O)N1CCC[C@H]1C(=O)N[C@@H](Cc1ccc(O)cc1)C(=O)N2 [BCY12579] (I: Ac-C[tBuAla]PE[dK]PYCFADPY[Nle]CA-NH2 / II: Ac-CP[1Nal][dK]CM[hArg]HWSTP[Hyp]WC-NH2; linker I:1-I:8-I:15, II:1-II:5-II:15 via TATA; linker I:5-II:4 via X1)
